We go through four compounds from PubChem BioAssay AID504661 (Broad Institute, 2011).

The source made the active and inactive calls. No rule for the calls is given here.

The test concerns P. falciparum 3D7 ACP-GFP apicoplast imaging, 4 days. Description: loss of apicoplast ACP-GFP localization – imaging, 3D7 ACP-GFP strain, mechanism study for antimalarial project, late-stage follow-up (AID 504661). The note with it: active compounds read high.

Regarding `COCCOC(=O)N(C)C[C@@H]1OCCCC[C@H](C)Oc2ccc(NC(=O)Nc3ccccc3)cc2C(=O)N([C@@H](C)CO)C[C@H]1C`, for the setting “at 50000 nM”, the apicoplast disruption is 13.7% (inactive).

For `COc1ccc(COC[C@H](C)N2C[C@@H](C)[C@H](CN(C)S(=O)(=O)c3ccc(F)cc3)OCCCC[C@H](C)Oc3ccc(NC(=O)Nc4ccccc4)cc3C2=O)cc1`, the apicoplast disruption (at 3.2 nM) is 16.1% (inactive).

In the case of `Cc1noc(C)c1NC(=O)Nc1ccc2c(c1)C(=O)N([C@@H](C)CO)C[C@@H](C)[C@H](CN(C)S(=O)(=O)c1ccc(F)cc1)OCCCC[C@H](C)O2`, the apicoplast disruption (at 2000 nM) is 21% (inactive).

Regarding `C[C@@H]1CN([C@@H](C)COC(=O)C(C)(C)C)C(=O)c2cc(NC(=O)Nc3ccccc3)ccc2O[C@@H](C)CCCCO[C@H]1CN(C)S(=O)(=O)c1ccc(F)cc1`, the apicoplast disruption (at 16 nM) is 17.2% (inactive).
